The record followed here is patent publication US9067983B2, “Anti-inflammatory antibodies and uses therefor” (DecImmune Therapeutics, Inc., priority 2009, dated 2015).

This test concerns RAG-1-/- mice. Briefly: human IgM-mediated myocardial injury in RAG-1-/- mice (1 h LAD occlusion, 24 h reperfusion). Format: in vivo, mouse. The settings on record: 400 μg hIgM i.v. with 200 μg N2 peptide or 150 μg F(ab')2, 15 min prior to occlusion; FIG. 4. On the procedure: Prior to occlusion (15 min), 400 μg of pooled individual hIgM from 10 donors was injected i.v. into the mice with either saline or 200 μg of N2 peptide. Myocardial sections were stained with Evans blue and TTC. Myocardial infarct size is expressed as a percentage infarct of the area at risk (AAR) of the left ventricle. (B and C) RAG-1−/− mice were treated as in (A) and analyzed for hIgM deposition (B) or serum troponin-I levels (C). (D) RAG-1−/− mice were subjected to 1 h LAD occlusion and 24 h reperfusion. Prior to occlusion (15 min), 400 μg hIgM was injected i.v. into the mice with either saline or 150 μg of anti-N2 F(ab′)2 antibody (21G6) and myocardial sections were analyzed as in (A). (E) RAG-1−/− mice were treated as in (D) and analyzed for hIgM deposition. In all panels, statistical significance was evaluated by Student's t test.

No end group written: not given here.

For the substance “Ac-LMKNMDPLNDNV (listed as Mus sp.) [N2 peptide, self-peptide, amino acids 592-603 of Mouse NMHC-IIB]”, the “human IgM-mediated injury (infarct size, hIgM deposition, serum troponin-I)” value is on record as “block human IgM-mediated injury”.
